Assays:
Assay type in all cases: cell-based
[1] = system: Japanese encepahalitis virus; settings: read-out: In-Vitro Antiviral Screening Result (EC50) C
[2] = system: Rift Valley fever virus; test: microbe, parasite or virus in culture; settings: read-out: In-Vitro Antiviral Screening Result (EC50) E
[3] = system: SARS coronavirus; test: microbe, parasite or virus in culture; settings: Severe acute respiratory syndrome coronavirus, read-out: In-Vitro Antiviral Screening Result (EC50) F
[4] = system: Venezuelan equine encephalitis virus; test: microbe, parasite or virus in culture; settings: read-out: In-Vitro Antiviral Screening Result (EC50) G
[5] = system: Influenza A virus H1N1; test: microbe, parasite or virus in culture; settings: H1N1, read-out: In-Vitro Antiviral Screening Result (EC50) H
[6] = system: many virus; test: Antivirus studies in vitro, summary over the virus panel; settings: read-out: EC50 against many virus
Description: compounds were diluted to 20 mg/mL in DMSO then prepared in for log 10 dilutions of 100 μg/mL down to 0.1 μg/mL) in MEM solution with 50 μg/mL gentamicin and 2% FBS. Each dilution was added to 5 wells of a 96-well plate with 80-100% confluent cells. Three wells of each dilution were infected with virus, and two wells remained uninfected as toxicity controls. The multiplicity of infection (MOI) was as low as possible to achieve CPE within 3-5 days of incubation. A known active compound was tested in parallel as a control. After untreated virus control wells reached maximum cytopathic effect (CPE), each well was scored microscopically. Plates were then stained with neutral red dye for approximately 2 hours, then supernatant dye was removed from the wells and the incorporated dye was extracted in 50:50 Sorensen citrate buffer/ethanol, then the optical density was read on a spectrophotometer.

## C=C1CCC2[C@](C)(CC[C@@H](O)[C@@]2(C)CO)C1/C=C/C1=CC(=C\c2ccc(N(C)C)cc2O)/OC1=O (stereo partly drawn) [Example 44]
[1]
  EC50: > 100 µg/mL
[2]
  EC50: > 100 µg/mL
[3]
  EC50: < 50 µg/mL
[4]
  EC50: > 100 µg/mL
[5]
  EC50: < 100 µg/mL
[6]
  EC50: < 50 µg/mL

## C=C1C(NC(C)C(=O)NC2=NCC=N2)CC2[C@](C)(CC[C@@H](O)[C@@]2(C)CO)C1/C=C/C1=CC(=C\c2ccc(N(C)C)cc2)/OC1=O (stereo partly drawn) [Example 188]
[1]
  EC50: < 100 µg/mL
[2]
  EC50: < 100 µg/mL
[3]
  EC50: < 50 µg/mL
[4]
  EC50: < 100 µg/mL
[5]
  EC50: > 100 µg/mL
[6]
  EC50: < 50 µg/mL

## C=C1CCC2[C@](C)(CC[C@@H](O)[C@@]2(C)CO)C1/C=C/C1=CC(=C\C2=CN3CC(=O)N(C)C3C=C2)/OC1=O (stereo partly drawn) [Example 63, 11,12-dedihydro-14-deoxy-(E)-15-((1-methyl-2-oxo-1,2,3,8a-tetrahydroimidazo[1,2-a]pyridin-6-yl)methylene)andrographolide]
[1]
  EC50: < 100 µg/mL
[2]
  EC50: < 50 µg/mL
[3]
  EC50: < 50 µg/mL
[4]
  EC50: < 100 µg/mL
[5]
  EC50: < 50 µg/mL
[6]
  EC50: < 50 µg/mL

## C=C1CCC2[C@](C)(CC[C@@H](O)[C@@]2(C)CO)C1/C=C/C1=CC(=C\c2ccc(-n3ccnc3)cc2)/OC1=O (stereo partly drawn) [Example 79, 11,12-dedihydro-14-deoxy-(E)-15-(4-(1H-imidazol-1-yl)benzylidene)andrographolide]
[1]
  EC50: < 50 µg/mL
[2]
  EC50: < 50 µg/mL
[3]
  EC50: < 50 µg/mL
[4]
  EC50: < 50 µg/mL
[5]
  EC50: < 50 µg/mL
[6]
  EC50: < 50 µg/mL

## C=C1CCC2C3(C)COC(c4ccc(OC5OC(CO)C(O)C(O)C5O)cc4)OC3CCC2(C)C1C/C=C1/C(=O)OCC1O (stereo not drawn) [Example 45, (E)-3-(2-(6a,10b-dimethyl-8-methylene-3-(4-((3,4,5-trihydroxy-6-(hydroxymethyl)tetrahydro-2H-pyran-2-yl)oxy)phenyl)decahydro-1H-naphtho[2,1-d][1,3]dioxin-7-yl)ethylidene)-4-hydroxydihydrofuran-2(3H)-one]
[1]
  EC50: < 50 µg/mL
[2]
  EC50: < 50 µg/mL
[3]
  EC50: < 50 µg/mL
[4]
  EC50: < 50 µg/mL
[5]
  EC50: > 100 µg/mL
[6]
  EC50: < 50 µg/mL
